Usually IC50 stands for the concentration that inhibits the measured activity by half.

One data set has as its system PC-12. Put plainly: Neuroprotective activity against amyloid beta (1 to 42)-induced cell death in rat PC12 cells assessed as cell viability at 100 uM preincubated for 24 hrs followed by amyloid beta (1 to 42) addition measured after 1 day by MTT assay relative to control. It counts as functional. To be noted: read-out: Activity.
Another data set concerns the target Acetylcholinesterase (Electrophorus electricus, UniProt O42275).
Data set [1] in a line: Cytotoxicity against rat PC12 cells assessed as reduction in cell viability at 0.01 to 100 uM after 24 hrs by MTT assay. The settings on record: pc-12, 24 h. Format: cell-based. In general terms: Tetrazolium dyes change colour on reduction, which living cells bring about.
The target in a further data set is Cholinesterase (Equus caballus, UniProt P81908).
Chain of Cholinesterase (P81908 whole entry): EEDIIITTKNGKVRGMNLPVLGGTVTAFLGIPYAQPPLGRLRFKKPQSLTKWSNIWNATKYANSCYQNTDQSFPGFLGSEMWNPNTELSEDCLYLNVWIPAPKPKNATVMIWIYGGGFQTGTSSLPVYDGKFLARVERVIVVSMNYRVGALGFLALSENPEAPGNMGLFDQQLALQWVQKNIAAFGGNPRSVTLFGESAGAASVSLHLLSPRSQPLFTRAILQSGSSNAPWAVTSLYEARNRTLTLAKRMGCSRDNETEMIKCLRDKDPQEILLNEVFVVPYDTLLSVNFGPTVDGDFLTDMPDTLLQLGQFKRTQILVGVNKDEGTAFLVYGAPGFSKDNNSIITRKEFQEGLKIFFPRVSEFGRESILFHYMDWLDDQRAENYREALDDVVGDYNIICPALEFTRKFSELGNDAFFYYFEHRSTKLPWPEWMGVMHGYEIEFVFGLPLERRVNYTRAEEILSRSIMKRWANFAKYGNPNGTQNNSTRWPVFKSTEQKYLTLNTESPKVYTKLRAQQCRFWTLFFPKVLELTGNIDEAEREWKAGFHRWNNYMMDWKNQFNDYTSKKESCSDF
In data set [2] the target is Amyloid-beta precursor protein (Homo sapiens) (UniProt P05067). In words: Inhibition of amyloid beta (1-42) (unknown origin) self-induced aggregation after 2 days by thioflavin T fluorometric assay.
Chain of Amyloid-beta precursor protein (Homo sapiens) (P05067 whole entry): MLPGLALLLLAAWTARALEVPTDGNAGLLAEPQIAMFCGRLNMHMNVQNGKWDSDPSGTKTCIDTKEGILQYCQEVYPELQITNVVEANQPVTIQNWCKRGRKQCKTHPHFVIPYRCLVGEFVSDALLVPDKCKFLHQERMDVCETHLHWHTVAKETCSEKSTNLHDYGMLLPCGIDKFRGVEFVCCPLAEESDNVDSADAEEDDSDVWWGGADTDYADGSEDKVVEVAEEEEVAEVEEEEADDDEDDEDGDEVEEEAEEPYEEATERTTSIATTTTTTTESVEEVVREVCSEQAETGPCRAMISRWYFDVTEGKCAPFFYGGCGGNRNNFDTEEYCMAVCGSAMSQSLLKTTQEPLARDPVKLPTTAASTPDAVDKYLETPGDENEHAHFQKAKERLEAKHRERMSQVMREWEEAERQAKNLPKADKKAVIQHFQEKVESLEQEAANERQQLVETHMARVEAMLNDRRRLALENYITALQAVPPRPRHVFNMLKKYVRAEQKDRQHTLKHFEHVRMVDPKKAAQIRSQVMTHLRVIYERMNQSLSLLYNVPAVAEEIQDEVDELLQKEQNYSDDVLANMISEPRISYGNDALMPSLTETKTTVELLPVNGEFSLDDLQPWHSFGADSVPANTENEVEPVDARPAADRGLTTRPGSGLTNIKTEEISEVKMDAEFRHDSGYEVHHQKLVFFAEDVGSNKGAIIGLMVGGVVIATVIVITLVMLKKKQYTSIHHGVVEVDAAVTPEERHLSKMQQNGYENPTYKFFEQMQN

Chain of Acetylcholinesterase (O42275 whole entry): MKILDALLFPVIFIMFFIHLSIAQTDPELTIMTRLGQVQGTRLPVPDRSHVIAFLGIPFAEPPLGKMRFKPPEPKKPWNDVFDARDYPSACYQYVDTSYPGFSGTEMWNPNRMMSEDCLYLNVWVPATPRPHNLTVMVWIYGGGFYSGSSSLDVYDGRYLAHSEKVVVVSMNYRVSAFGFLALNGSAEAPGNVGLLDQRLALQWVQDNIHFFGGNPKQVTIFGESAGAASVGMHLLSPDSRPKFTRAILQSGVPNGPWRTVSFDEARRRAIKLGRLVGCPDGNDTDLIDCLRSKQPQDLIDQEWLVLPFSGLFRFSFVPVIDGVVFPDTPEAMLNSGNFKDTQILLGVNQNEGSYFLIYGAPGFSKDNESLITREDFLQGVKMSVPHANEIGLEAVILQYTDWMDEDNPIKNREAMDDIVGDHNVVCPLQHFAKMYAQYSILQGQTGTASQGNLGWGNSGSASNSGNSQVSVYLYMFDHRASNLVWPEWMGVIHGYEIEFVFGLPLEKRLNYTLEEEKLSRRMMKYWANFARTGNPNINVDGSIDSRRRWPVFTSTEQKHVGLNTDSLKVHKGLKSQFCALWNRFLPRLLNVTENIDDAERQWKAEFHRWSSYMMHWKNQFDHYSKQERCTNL
Description for Acetylcholinesterase: Inhibition of electric eel AChE using acetylthiocholine iodide as substrate preincubated for 5 mins followed by substrate addition measured for 10 mins by modified Ellman's method

Regarding `COc1cc(/C=C2\CC(C)C/C(=C\c3cc(OC)c(OC)c(OC)c3Br)C2=O)c(Br)c(OC)c1OC` (centres undefined), the viability at 100 µM with PC-12 is not above 92%. Besides, the IC50 at Acetylcholinesterase worked out at 1.5 µM; at Cholinesterase, 19.5 µM. Further, the Activity result in data set [1] is listed as “Non-toxic”.

On to `COc1cccc(/C=C2\CN(Cc3ccccc3)C/C(=C\c3cccc(OC)c3Cl)C2=O)c1Cl`, for which the viability at 100 µM in the data set on PC-12 is 58%. For the same compound, the half-inhibitory concentration (IC50) against Acetylcholinesterase and at Cholinesterase was more than 100 µM in each case. In data set [1], the Activity entry is “Non-toxic”.

Turning to `COc1cccc(/C=C2\CC(C)C/C(=C\c3cccc(OC)c3Cl)C2=O)c1Cl` (centres undefined), the viability at 100 µM with PC-12 is 58%. Further, the figures for the IC50 against Acetylcholinesterase and against Cholinesterase were 5.6 µM and 49.7 µM, respectively. In addition, the Activity result in data set [1] is reported as “Non-toxic”.

On to `COc1ccc(/C=C2\CNC/C(=C\c3ccc(OC)c(OC)c3Cl)C2=O)c(Cl)c1OC`, for which the viability at 100 µM in the data set on PC-12 was found to be 58%. Further, the 50% inhibitory concentration (IC50) was determined as 3.7 µM at Acetylcholinesterase and 16.7 µM at Cholinesterase. Moreover, in data set [1], the Activity result is “Non-toxic”.

As for `COc1cccc(/C=C2\CN(C)C/C(=C\c3cccc(OC)c3Cl)C2=O)c1Cl`, the viability at 100 µM in the data set on PC-12 is not above 92%. Moreover, the values for the half-maximal inhibitory concentration (IC50) against Acetylcholinesterase and on Cholinesterase were 1.2 µM and more than 100 µM, respectively. The Activity result in data set [1] is “Non-toxic”.

As for `COc1ccc(/C=C2\CC(C(C)C)C/C(=C\c3ccc(OC)c(OC)c3Cl)C2=O)c(Cl)c1OC` (centres undefined), the viability at 100 µM in the data set on PC-12 is 58%. The IC50 against Acetylcholinesterase was 0.92 µM; on Cholinesterase, more than 100 µM. The inhibition entry in data set [2] is “Dose-dependent effect”. Moreover, in data set [1], the Activity result was “Non-toxic”.

Consider `COc1cc(/C=C2\COC/C(=C\c3cc(OC)c(OC)c(OC)c3Br)C2=O)c(Br)c(OC)c1OC`, for which the viability at 100 µM with PC-12 is not above 92%. Moreover, the IC50 at Acetylcholinesterase was 1.5 µM; against Cholinesterase it was more than 100 µM. For the same compound, the Activity result in data set [1] was “Non-toxic”.

On to `COc1cc(/C=C2\CN(Cc3ccccc3)C/C(=C\c3cc(OC)c(OC)c(OC)c3Br)C2=O)c(Br)c(OC)c1OC`, for which the viability at 100 µM with PC-12 was 58%. Besides, the IC50 against Acetylcholinesterase and against Cholinesterase was more than 100 µM each time. Besides, the Activity result in data set [1] was “Non-toxic”.

Turning to `COc1ccc(/C=C2\COC/C(=C\c3ccc(OC)c(OC)c3Cl)C2=O)c(Cl)c1OC`, the viability at 100 µM in the data set with PC-12 came out at 58%. In addition, the figures for the IC50 at Acetylcholinesterase and on Cholinesterase were 7.2 µM and more than 100 µM, respectively. Besides, in data set [1], the Activity result is on record as “Non-toxic”.

As to `COc1cccc(/C=C2\CC(C(C)C)C/C(=C\c3cccc(OC)c3Cl)C2=O)c1Cl` (centres undefined), in the data set with PC-12, the viability at 100 µM worked out at 58%. Further, the values for the IC50 against Acetylcholinesterase and against Cholinesterase were 1.3 µM and more than 100 µM, respectively. In data set [1], the Activity result was “Non-toxic”.

`COc1ccc(/C=C2\CC(C)C/C(=C\c3ccc(OC)c(OC)c3Cl)C2=O)c(Cl)c1OC` (centres undefined): the viability at 100 µM with PC-12 came out at 58%. The half-inhibitory concentration (IC50) at Acetylcholinesterase came out at 2.1 µM; at Cholinesterase, 11.2 µM. Further, the Activity result in data set [1] is reported as “Non-toxic”.

With `COc1ccc(/C=C2\CN(C)C/C(=C\c3ccc(OC)c(OC)c3Cl)C2=O)c(Cl)c1OC`, in the data set on PC-12, the viability at 100 µM is not above 92%. In addition, the IC50 on Acetylcholinesterase was 0.63 µM; against Cholinesterase, 2.9 µM. For the same compound, the inhibition entry in data set [2] is “Dose-dependent effect”. For the same compound, the Activity entry in data set [1] is listed as “Non-toxic”.

Regarding `COc1cc(/C=C2\CCC/C(=C\c3cc(OC)c(OC)c(OC)c3Br)C2=O)c(Br)c(OC)c1OC`, the viability at 100 µM with PC-12 stood at 58%. Further, the IC50 at Acetylcholinesterase was 12.6 µM; against Cholinesterase, more than 100 µM. The inhibition entry in data set [2] was “Dose-dependent effect”. In addition, in data set [1], the Activity entry is on record as “Non-toxic”.

With `COc1cc(/C=C2\CC(C(C)C)C/C(=C\c3cc(OC)c(OC)c(OC)c3Br)C2=O)c(Br)c(OC)c1OC` (centres undefined), the viability at 100 µM with PC-12 stood at 58%. In addition, the IC50 was 0.51 µM at Acetylcholinesterase and more than 100 µM on Cholinesterase. Also, in data set [2], the inhibition result was “Dose-dependent effect”. Moreover, the Activity entry in data set [1] was “Non-toxic”.

Turning to `COc1ccc(/C=C2\CCC/C(=C\c3ccc(OC)c(OC)c3Cl)C2=O)c(Cl)c1OC`, the viability at 100 µM with PC-12 worked out at 58%. Further, the IC50 against Acetylcholinesterase was 17.5 µM; on Cholinesterase it was more than 100 µM. The Activity entry in data set [1] is “Non-toxic”.

Turning to `COc1cccc(/C=C2\CCC/C(=C\c3cccc(OC)c3Cl)C2=O)c1Cl`, the viability at 100 µM in the data set with PC-12 turned out to be 58%. For the same compound, the figures for the IC50 against Acetylcholinesterase and on Cholinesterase were 22.4 µM and more than 100 µM, respectively. Further, in data set [1], the Activity entry is given as “Non-toxic”.

On to `COc1cc(/C=C2\CN(C)C/C(=C\c3cc(OC)c(OC)c(OC)c3Br)C2=O)c(Br)c(OC)c1OC`, for which the viability at 100 µM with PC-12 was not above 92%. Moreover, the IC50 was found to be 0.037 µM on Acetylcholinesterase and 10.5 µM against Cholinesterase. For the same compound, the inhibition result in data set [2] was “Dose-dependent effect”. In data set [1], the Activity result is given as “Non-toxic”.

Regarding `COc1cccc(/C=C2\CNC/C(=C\c3cccc(OC)c3Cl)C2=O)c1Cl`, in the data set with PC-12, the viability at 100 µM came out at 58%. Besides, the figures for the IC50 on Acetylcholinesterase and against Cholinesterase were 5.2 µM and more than 100 µM, respectively. For the same compound, the Activity result in data set [1] is “Non-toxic”.

On to `COc1ccc(/C=C2\CN(Cc3ccccc3)C/C(=C\c3ccc(OC)c(OC)c3Cl)C2=O)c(Cl)c1OC`, for which the viability at 100 µM in the data set on PC-12 turned out to be 58%. For the same compound, the IC50 at Acetylcholinesterase and at Cholinesterase was more than 100 µM in each case. For the same compound, the Activity entry in data set [1] is on record as “Non-toxic”.

As for `COc1cc(/C=C2\CNC/C(=C\c3cc(OC)c(OC)c(OC)c3Br)C2=O)c(Br)c(OC)c1OC`, the viability at 100 µM in the data set on PC-12 is not above 92%. In addition, the half-maximal inhibitory concentration (IC50) was 1.9 µM against Acetylcholinesterase and 68.8 µM at Cholinesterase. In data set [1], the Activity result was “Non-toxic”.

Turning to `COc1cccc(/C=C2\COC/C(=C\c3cccc(OC)c3Cl)C2=O)c1Cl`, the viability at 100 µM with PC-12 was found to be 58%. In addition, the IC50 is 9.5 µM against Acetylcholinesterase and more than 100 µM against Cholinesterase. Moreover, the Activity entry in data set [1] is “Non-toxic”.
